Publication PMC5064445 (ACS infectious diseases, 2015)

How the values were obtained:
[1] = target: NDM-1 (Klebsiella pneumoniae, UniProt C7C422); test: Inhibition of NDM-1-catalyzed imipenem hydrolysis; type: biochemical; settings: relative to L-CS319
[2] = tested on: HeLa cells; test: Cytotoxicity assay; type: cell-based, human; settings: up to 500 μM; 24 h incubation
[3] = tested on: HEK 293 cells; test: Cytotoxicity assay; type: cell-based, human; settings: up to 500 μM; 24 h incubation

Chain of NDM-1 (C7C422 39-270 limits assumed): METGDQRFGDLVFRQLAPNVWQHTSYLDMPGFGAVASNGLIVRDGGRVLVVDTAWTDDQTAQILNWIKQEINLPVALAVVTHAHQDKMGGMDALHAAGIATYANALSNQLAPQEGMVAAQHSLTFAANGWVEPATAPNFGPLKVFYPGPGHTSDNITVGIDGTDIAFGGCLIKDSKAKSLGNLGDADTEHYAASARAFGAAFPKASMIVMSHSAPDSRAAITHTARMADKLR

SMILES: CC1(C)S[C@@H]2CS[C@@H](CS)N2[C@H]1C(=O)O [D-VC26, (2S,5R,8S)-2-Mercaptomethyl-7-dimethyl-8-carboxylate-1-aza-3,6-dithiobicyclo[3.3.0]octane]
- times less active than L-CS319 (in vitro NDM-1 inhibition) [1]: ~2 times

SMILES: O=C(O)[C@@H]1CS[C@H]2CS[C@H](CS)N21 [L-CS319, (2R,5S,8R)-8-Carboxylate-2-mercaptomethyl-1-aza-3,6-dithiobicyclo[3.3.0]octane]
- toxic effects against HeLa cells [2]: did not show toxic effects
- toxic effects against Hek 293 cells [3]: did not show toxic effects
